Data on 1 molecule can be found in US20240050449A1, “Use of Acetyltanshinone IIA in Preparation of Medicament for Treating Lung Cancer and Medicament for Treating Lung Cancer” (UNIVERSITY OF MACAU, priority 2022, published 2024).

The term IC50 denotes the concentration that gives 50% inhibition. Higher therefore signals lower potency.

Experiment [1] relates to A549 cells. As to the kind of experiment: MTT cell viability assay, A549 cells. Type of experiment: cell-based. Here is the method: (§1) Cells were seeded at a density of 3×10^3 per well in 96-well plates, allowed to attach overnight, and treated with various concentrations of agent. After 72 h of treatment, 10 μL of MTT solution (5 mg/mL) was added to each well and cultured in the plate for 4 h. The crystallized formazan was dissolved in 100 μL of 10% (w/v) SDS and 0.01 mol/L HCl solution for 24 h, and then the value was read by spectrophotometry at 595 nm using a microplate reader.
On the technique in general: Tetrazolium dyes change colour on reduction, which living cells bring about.

The subject of a further experiment is H1975 cells. As to the kind of experiment: MTT cell viability assay, H1975 cells. The format is cell-based. As for the experimental part: as §1
Experiment [2] concerns H1650 cells. In words: MTT cell viability assay, H1650 cells. Type of experiment: cell-based. As for the experimental part: as §1
The subject of experiment [3] is A549 cells. As to the kind of experiment: Colony formation (cloning experiment), A549 cells. Particulars: 0.125 μM, 10 days. Type of experiment: cell-based. Here is the method: (§2) Cells were seeded at a density of 1×10^3 per well in 6-well plates and cultured for 24 h. The cells were treated with medicament or DMSO for 10 days, after which the cells were washed once with 1×PBS, fixed with 4% paraformaldehyde for 20 min, and stained with 0.1% crystal violet for 15 min. The stained cells in each well were imaged and the number of colonies in each well was quantified using ImageJ software.

The subject of experiment [4] is H1650 cells. As to the kind of experiment: Colony formation (cloning experiment), H1650 cells. Type of experiment: cell-based. Particulars: 10 days. As for the experimental part:
as §2

Experiment [5] relates to A549 cells. In words: Transwell Matrigel invasion assay. Type of experiment: cell-based. Here is the method: Cell migration and invasion assays were performed in a transwell chamber (Corning, #3422) with a pore size of 8 μm. Cells were treated with different concentrations of ATA and Erlotinib for 48 h, then harvested and resuspended in a serum-free medium. Cells (1×10^4) were added to the upper side of the transwell chamber and fresh medium containing 10% FBS was added to the lower side. Cells were allowed to migrate from the upper side to the lower side of the chamber at 37° C. for 24 h. Membranes from the cell chamber were fixed with 4% paraformaldehyde for 20 min. The cells remaining on the upper side of the membrane were gently removed with a cotton swab and stained with 1% crystal violet for 20 min to stain the cells migrating to the other side of the transwell chamber. The membrane was then cut and fixed on a glass slide. The migrated cells on each slide were imaged with a Leica M165-FC microscope. For the transwell invasion assay, a Matrigel solution (Corning, #356230) was diluted to one-thirtieth with serum-free medium and applied to the upper side of the precoated chamber for 2 h, after the Matrigel had solidified, the cells were added to the upper side of the transwell chamber. The following procedure is identical to the migration assay. Migrated and invaded cells were quantified using ImageJ software.

For experiment [6], the system named is A549 cell-derived xenograft tumors. In words: Mouse xenograft study. The conditions noted are these: 25 mg/kg intraperitoneally every 3 days, day 31. The format is in vivo, nude mice. As for the experimental part:
Cell line xenograft experiments were performed in 6-week-old female nude mice, 4×10^6 A549 cells were mixed 1:1 with matrigel-basement membrane matrix (Corning) and injected subcutaneously into nude mice. Tumors were allowed to grow to around […] and mice were randomly selected to receive treatment with ATA (25 mg/kg) or Erlotinib (25 mg/kg) intraperitoneally every 3 days for 31 days. ATA was formulated with 25% ethanol, 60% PEG300 (Sigma-Aldrich), and 15% Tween 80 (Sigma-Aldrich). Erlotinib was formulated in 5% DMSO, 30% PEG300, 5% Tween 80 and 60% H2O. Mouse body weight and tumor volume were measured every 3 days by a scale and caliper. Tumor volume (mm^3) was calculated using the formula. π/6×length (mm)×[width (mm)]^2. At least 6 mice in the control and treatment groups were evaluated during the study. All mice were sacrificed after 31 days of drug treatment, tumors were collected, and tumor weights were recorded. All animal studies were conducted in accordance with the requirements of the Animal Research Ethics Committee of Macao University and in compliance with all relevant ethical requirements.
To determine if ATA could also produce the same effect in vivo, this example injected A549 cells subcutaneously into nude mice to form tumor xenografts. Mice were randomly assigned to three groups. When the size of each tumor increased to a volume of approximately 100 mm^3, mice were injected intraperitoneally with vehicle control, ATA (25 mg/kg), or Erlotinib (25 mg/kg) every 3 days for 31 days. The tumor size and body weight of each mouse were measured every 3 days until the end of the animal experiment on day 31.

The target in the next experiment is T1, p70S6K (Homo sapiens, UniProt P23443).
T1 construct: endogenous in cells; host or cells: A549, H358, H1975, H1650 for the Western blots
As to the kind of experiment: Western blot, p70S6K protein levels in drug-resistant NSCLC cells. The format is cell-based. The conditions noted are these: 48 h. As for the experimental part:
Cells were washed once with PBS and frozen in RIPA lysis buffer containing protease and phosphatase inhibitors (Sigma-Aldrich) for 30 min. After sonication and centrifugation, the total protein concentration was determined by protein assay using Bio-Rad concentrated dye reagent (Bio-Rad). Equal amounts of protein ([…]) from each sample were separated by SDS-PAGE and electrotransferred to nitrocellulose membranes (GE Healthcare). Detection was performed on the membrane with a 1:1000 dilution of specific primary antibody followed by incubation with a 1:2000 dilution of the HRP conjugated secondary antibody. Finally, immunoreactivity is detected with a chemiluminescent substrate (Clarity Western ECL substrate; Bio-Rad). EGFR (#4267S), MET (#8198S), p-Akt (#9271L), akt (#9272S), p-mTOR (#5536S), mTOR (#2983S), p-p70S6K (#9234S), p70S6K (#2708S), p-S6RP (#4857S), S6RP (#2217S), p-4E-BP1 (#9455S) antibodies. 4E-BP1 (#9644S), p53 (#2527S), p21 waf1/Cip1 (#2947S), survivin (#2808S), cyclin B1 (#12231S), cyclin D3 (#2936S) and GAPDH (#2118S) were purchased from Cell Signaling Technology. Aurora A (#ab13824) and PLK1 (#ab189139) antibodies were from Abcam.
In general terms: Immunoblotting shows a protein as a band on a membrane.

Experiment [7] has as its system H1650 cells. In words: Spheroid formation experiment, H1650 cells.

Molecules are shown by their SMILES. Entries after “also recorded” stand apart in the source; their conditions may differ.

T1 sequence (P23443 whole entry): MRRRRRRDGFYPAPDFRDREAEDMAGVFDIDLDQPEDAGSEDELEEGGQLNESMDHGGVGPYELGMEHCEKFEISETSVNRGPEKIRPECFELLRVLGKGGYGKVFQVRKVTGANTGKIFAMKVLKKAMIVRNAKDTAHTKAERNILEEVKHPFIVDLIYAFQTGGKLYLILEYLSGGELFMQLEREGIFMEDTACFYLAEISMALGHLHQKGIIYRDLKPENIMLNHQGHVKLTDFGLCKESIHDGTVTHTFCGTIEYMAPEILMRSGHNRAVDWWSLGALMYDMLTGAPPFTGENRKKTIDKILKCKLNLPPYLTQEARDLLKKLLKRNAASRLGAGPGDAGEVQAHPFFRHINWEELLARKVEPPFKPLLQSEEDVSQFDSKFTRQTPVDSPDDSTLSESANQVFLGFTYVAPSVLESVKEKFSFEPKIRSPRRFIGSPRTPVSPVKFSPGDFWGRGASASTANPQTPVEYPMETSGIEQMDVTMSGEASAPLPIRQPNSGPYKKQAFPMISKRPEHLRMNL

For the molecule `CC(=O)Oc1c(OC(C)=O)c2c(C)coc2c2ccc3c(c12)CCCC3(C)C` [ATA, acetyltanshinone IIA], the “IC50 ratio of Erlotinib/ATA” value in the experiment with A549 cells [1] is 10.7; in the experiment on H1975 cells, 6; in the experiment on H1650 cells [2], 17.3. Also, the “growth inhibition compared with other agents” value with A549 cells [1] (ATA 2 μM, 72 h, MTT) is “significantly higher than all three inhibitors; also recorded: greater growth inhibition than combination therapy with Erlotinib and MLN8237”; with H1650 cells [2] (ATA 2 μM, 72 h, MTT), “significantly higher than all three inhibitors; also recorded: greater growth inhibition than combination therapy with Erlotinib and MLN8237”. The IC50 in the experiment on A549 cells [1] (MTT, 72 h) is 1830 ± 210 nM; with H1975 cells (MTT, 72 h) it was 1760 ± 20 nM; in the experiment with H1650 cells [2] (MTT, 72 h), 1280 ± 290 nM. In addition, the “reduction of colony-forming capacity” value was 42% in the experiment on A549 cells [3] and 73% in the experiment with H1650 cells [4] (0.125 μM). Further, in the experiment with H1650 cells [4] (1 μM), the “colony formation inhibition compared with Afatinib” value is reported as “significantly higher colony formation inhibition than Afatinib”. Besides, in the experiment with A549 cells [5] (0.5 μM), the “effect on cell invasion” value was “significant inhibitory effect”. For the same molecule, the “reduction of invasion ability” value in the experiment on A549 cells [5] (1 μM) stood at 88%. Also, in experiment [6], the “reduction of tumor size compared to the control group” value is listed as 72.1%. The “reduction of tumor weight” value in [6] stood at 77.4%. The “levels of p70S6K protein and its phosphorylated forms” value at p70S6K (A549, H358, H1975, H1650 cells, 1 or 2 μM) is reported as “greatly reduced”. In addition, the “levels of p70S6K” value at p70S6K (A549 and H1650 cells, 2 μM) is given as “significantly decreased”. For the same molecule, the “spheroid growth / sphere size” value in the experiment with H1650 cells [7] (2 μM, 0 to 8 days) is on record as “completely inhibited”. Also, the spheroid formation entry in the experiment on H1650 cells [7] (both 1 and 2 μM) is “strongly inhibited”.
